# How the values were obtained:
# Assay type in all cases: biochemical
# FGFR1 [1] = target: T1, FGFR1 (Homo sapiens, UniProt P11362); experiment: Caliper mobility shift kinase assay with recombinant FGFR1, ATP at Km ([…])
# FGFR1 [2] = target: T1, FGFR1; experiment: Caliper mobility shift kinase assay with recombinant FGFR1, also at varied ATP concentrations
# FGFR3 = FGFR3 (Homo sapiens, UniProt P22607); experiment: cell-free kinase assay (authors' own, called previous); details: cited from earlier work
# Chain of FGFR3 (P22607 23-806): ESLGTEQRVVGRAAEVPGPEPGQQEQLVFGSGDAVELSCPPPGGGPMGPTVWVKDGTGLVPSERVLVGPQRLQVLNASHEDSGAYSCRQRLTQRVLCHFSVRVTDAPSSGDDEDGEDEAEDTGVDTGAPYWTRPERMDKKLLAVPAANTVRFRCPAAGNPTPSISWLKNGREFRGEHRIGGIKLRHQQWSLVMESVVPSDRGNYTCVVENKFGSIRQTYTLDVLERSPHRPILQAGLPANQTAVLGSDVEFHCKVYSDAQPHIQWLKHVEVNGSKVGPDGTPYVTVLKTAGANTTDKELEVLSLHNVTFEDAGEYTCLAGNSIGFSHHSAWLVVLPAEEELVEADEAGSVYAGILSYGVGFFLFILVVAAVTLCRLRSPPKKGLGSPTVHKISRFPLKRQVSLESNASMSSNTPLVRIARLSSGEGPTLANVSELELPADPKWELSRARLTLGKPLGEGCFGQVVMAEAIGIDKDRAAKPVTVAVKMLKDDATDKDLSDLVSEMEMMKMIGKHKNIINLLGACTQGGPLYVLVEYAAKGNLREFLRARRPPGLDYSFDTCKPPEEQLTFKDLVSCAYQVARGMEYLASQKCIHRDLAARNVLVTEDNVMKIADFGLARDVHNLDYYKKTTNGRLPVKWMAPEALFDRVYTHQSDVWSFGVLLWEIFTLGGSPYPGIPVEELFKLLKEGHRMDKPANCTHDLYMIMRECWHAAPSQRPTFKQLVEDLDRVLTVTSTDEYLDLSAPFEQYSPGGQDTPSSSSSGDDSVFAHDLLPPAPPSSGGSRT
# T1 sequence (P11362 22-822): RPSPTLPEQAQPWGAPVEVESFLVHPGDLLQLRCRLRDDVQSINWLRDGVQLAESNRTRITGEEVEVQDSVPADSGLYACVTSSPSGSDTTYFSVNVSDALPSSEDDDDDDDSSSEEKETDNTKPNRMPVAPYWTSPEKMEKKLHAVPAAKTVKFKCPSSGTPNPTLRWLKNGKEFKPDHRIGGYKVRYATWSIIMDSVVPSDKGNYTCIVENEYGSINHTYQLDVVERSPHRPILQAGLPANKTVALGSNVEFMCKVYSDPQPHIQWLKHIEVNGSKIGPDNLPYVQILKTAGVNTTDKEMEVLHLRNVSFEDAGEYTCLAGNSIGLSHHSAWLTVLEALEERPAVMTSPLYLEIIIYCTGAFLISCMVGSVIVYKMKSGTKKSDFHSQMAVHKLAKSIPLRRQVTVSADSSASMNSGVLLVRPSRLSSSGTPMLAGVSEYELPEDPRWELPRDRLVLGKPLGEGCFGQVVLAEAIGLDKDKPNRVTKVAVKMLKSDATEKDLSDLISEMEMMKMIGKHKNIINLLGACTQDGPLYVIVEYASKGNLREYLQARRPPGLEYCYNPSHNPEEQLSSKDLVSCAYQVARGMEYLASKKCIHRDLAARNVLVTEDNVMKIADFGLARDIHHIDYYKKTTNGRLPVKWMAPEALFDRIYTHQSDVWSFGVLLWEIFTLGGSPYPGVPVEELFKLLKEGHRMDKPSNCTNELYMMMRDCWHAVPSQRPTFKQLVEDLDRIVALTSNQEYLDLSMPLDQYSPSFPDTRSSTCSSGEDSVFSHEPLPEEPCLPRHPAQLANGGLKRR
Structure (SMILES),IC50 (FGFR1 [1]) [µM],IC50 (FGFR1 [2]) [µM],IC50 (FGFR3) [µM]
"O=C1/C(=C/c2ccc(O)c(O)c2)CSC/C1=C\c1ccc(O)c(O)c1 [Ad23, 3,5-bis(3,4-dihydroxybenzylidene)-tetrahydrothiopyran-4-one]",0.6,–,–
"O=C1/C(=C/c2ccc(O)c(O)c2)COC/C1=C\c1ccc(O)c(O)c1 [Af23, 3,5-bis(3,4-dihydroxybenzylidene)-tetrahydropyran-4-one]",1.4,–,–
"CC(Cc1ccc(O)c(O)c1)C(C)Cc1ccc(O)c(O)c1 (stereo not shown) [NDGA, nordihydroguaiaretic acid]",–,24.5,72.4

# Source: PMC4410475, “Discovery and anti-cancer evaluation of two novel non-ATP-competitive FGFR1 inhibitors in non-small-cell lung cancer” (BMC Cancer, 2015)
